{
  "source": "patent US11590241B2",
  "about": "“Nanoparticle conjugated synthetic opioid prodrugs and methods of their uses” (VIRGINIA COMMONWEALTH UNIVERSITY, priority 2016, dated 2023)",
  "origin": "cited, not measured here",
  "key": {"mice": {"tested_on": "mice", "conditions": "parent compound, earlier data"}, "MOR [1]": {"biological_target": "T1, MOR (Homo sapiens, UniProt P35372)", "T1 construct": "expressed in transfected cells; host or cells: CHO (Chinese hamster ovary) cells, membrane preparation", "T1 sequence (P35372 whole entry)": "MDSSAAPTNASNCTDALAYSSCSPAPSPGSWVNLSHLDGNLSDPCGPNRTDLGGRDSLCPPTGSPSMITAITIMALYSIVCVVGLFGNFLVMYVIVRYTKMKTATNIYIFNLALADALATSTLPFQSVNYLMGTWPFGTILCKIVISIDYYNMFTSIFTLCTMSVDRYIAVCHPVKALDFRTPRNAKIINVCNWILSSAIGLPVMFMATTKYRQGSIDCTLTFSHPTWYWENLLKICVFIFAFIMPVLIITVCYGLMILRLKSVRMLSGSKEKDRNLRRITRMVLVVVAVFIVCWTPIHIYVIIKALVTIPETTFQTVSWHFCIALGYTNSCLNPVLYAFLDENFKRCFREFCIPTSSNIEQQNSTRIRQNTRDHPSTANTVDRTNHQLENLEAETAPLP", "conditions": "data from Li et al. 2009"}, "MOR [2]": {"biological_target": "T1, MOR", "conditions": "read-out: Ki (nM) μ; [3H]naloxone; data from Li et al. 2009"}, "morphine-pelleted mice": {"tested_on": "morphine-pelleted mice", "conditions": "U.S. Pat. No. 8,980,908"}, "[3]": {"conditions": "extensive hepatic first-pass metabolism"}},
  "data": [
    {"smiles": "O=C(Cc1ccncc1)N[C@@H]1CC[C@@]2(O)[C@H]3Cc4ccc(O)c5c4[C@@]2(CCN3CC2CC2)[C@H]1O5", "note": "[NAP, 17-cyclopropylmethyl-3,14 β-dihydroxy-4,5 α-epoxy-6 β-[(4-pyridyl)acetamido]morphinan]", "values": [
      {"measurement": "AD50, blocking the antinociceptive effect of morphine", "setting": "mice", "result": 4.98, "unit": "mg/kg"},
      {"measurement": "agonist activity (antinociception)", "setting": "mice", "result": "did not carry any significant agonist activity"},
      {"measurement": "MOR [35S]GTPγS Binding % Emax of DAMGO", "setting": "MOR [1]", "result": "22.7 ± 0.8", "unit": "%"},
      {"measurement": "EC50", "setting": "MOR [1]; read-out: MOR [35S]GTPγS Binding EC50", "result": "1.14 ± 0.38", "unit": "nM"},
      {"measurement": "Ki", "setting": "MOR [2]", "result": "0.37 ± 0.07", "unit": "nM"},
      {"measurement": "intestinal motility", "setting": "morphine-pelleted mice", "result": "increase intestinal motility"}
    ]},
    {"smiles": "C=CCN1CC[C@]23c4c5ccc(O)c4O[C@H]2C(=O)CC[C@@]3(O)[C@H]1C5", "note": "[Naloxone]", "values": [
      {"measurement": "oral bioavailability", "setting": "[3]", "result": "~2", "unit": "%"}
    ]}
  ]
}
